Experimental data: patent US20100119599A1 (ARCHER PHARMACEUTICALS, INC., priority 2006, published 2010)

Tests used:
Aβ1-42 = experiment: Measurement of Aβ1-42 in culture medium of 7W WT APP751 CHO cells by ELISA; format: cell-based, Chinese hamster; details: Cricetulus griseus; Table 1; 5 μM test compound; CHO cells stably transfected with human APP751; culture medium, ELISA; control DMSO; 0 = no detectable amount; read-out: Aβ1-42 (% of control)
Aβ1-40 = experiment: Measurement of Aβ1-40 in culture medium of 7W WT APP751 CHO cells by ELISA; format: cell-based, Chinese hamster; details: Cricetulus griseus; Table 1; 5 μM test compound; CHO cells stably transfected with human APP751; culture medium, ELISA; control DMSO; 0 = no detectable amount
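Note: 5 µM test compound but RI-coded compounds at 10 µM for 24 hours.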

Row | Structure (SMILES) | activity at 5 µM (Aβ1-42) [%] | activity at 5 µM (Aβ1-40) [%]
1 | COc1cc(C2C(C(=O)OCc3ccccc3)=C(C)NC3=C2C(=O)CCC3)cc(Br)c1O (stereo not shown) [ST013249, phenylmethyl 4-(3-bromo-4-hydroxy-5-methoxyphenyl)-2-methyl-5-oxo-1,4,6,7,8-pentahydroquinoline-3-carboxylate] | 68 | 0
2 | COCCOC(=O)C1=C(C)NC2=C(C(=O)CCC2)C1c1ccc(N(C)C)cc1 (stereo not shown) [ST013251, 2-methoxyethyl 4-[4-(dimethylamino)phenyl]-2-methyl-5-oxo-1,4,6,7,8-pentahydroquinoline-3-carboxylate] | 58.6 | 89.4
3 | COCCOC(=O)C1=C(C)NC2=C(C(=O)CCC2)C1c1ccccc1 (stereo not shown) [ST013253, 2-methoxyethyl 2-methyl-5-oxo-4-phenyl-1,4,6,7,8-pentahydroquinoline-3-carboxylate] | 85.8 | 50.2
4 | COCCOC(=O)C1=C(C)NC2=C(C(=O)CCC2)C1c1ccc(O)cc1 (stereo not shown) [ST013254, 2-methoxyethyl 4-(4-hydroxyphenyl)-2-methyl-5-oxo-1,4,6,7,8-pentahydroquinoline-3-carboxylate] | 76.9 | 49.6
5 | CCN(CC)c1ccc(C2C(C(=O)OCCOC)=C(C)NC3=C2C(=O)CCC3)cc1 (stereo not shown) [ST013256, 2-methoxyethyl 4-[4-(diethylamino)phenyl]-2-methyl-5-oxo-1,4,6,7,8-pentahydroquinoline-3-carboxylate] | 92.8 | 60.2
6 | CC1=C(C(=O)OC2CCCCC2)C(c2cccc3ccccc23)C2=C(CCCC2=O)N1 (stereo not shown) [ST013258, cyclohexyl 2-methyl-4-naphthyl-5-oxo-1,4,6,7,8-pentahydroquinoline-3-carboxylate] | 47 | 0
7 | CC1=C(C(=O)OC2CCCCC2)C(c2ccc(Cl)c(Cl)c2)C2=C(CCCC2=O)N1 (stereo not shown) [ST013269, cyclohexyl 4-(3,4-dichlorophenyl)-2-methyl-5-oxo-1,4,6,7,8-pentahydroquinoline-3-carboxylate] | 1.35 | 12.3
8 | COc1ccc(OC)c(C2C(C(=O)OC3CCCCC3)=C(C)NC3=C2C(=O)CCC3)c1 (stereo not shown) [ST013270, cyclohexyl 4-(2,5-dimethoxyphenyl)-2-methyl-5-oxo-1,4,6,7,8-pentahydroquinoline-3-carboxylate] | 35 | 19.7
9 | CC1=C(C(=O)OC2CCCCC2)C(c2ccccc2OCc2ccccc2)C2=C(CCCC2=O)N1 (stereo not shown) [ST013271, cyclohexyl 2-methyl-5-oxo-4-[2-(phenylmethoxy)phenyl]-1,4,6,7,8-pentahydroquinoline-3-carboxylate] | 39.9 | 6.92
10 | CCc1ccc(C2C(C(=O)OC3CCCCC3)=C(C)NC3=C2C(=O)CCC3)cc1 (stereo not shown) [ST013320, cyclohexyl 4-(4-ethylphenyl)-2-methyl-5-oxo-1,4,6,7,8-pentahydroquinoline-3-carboxylate] | 71.8 | 60.2
11 | CCCOC(=O)C1=C(C)NC2=C(C(=O)CCC2)C1c1ccccc1OC(C)C (stereo not shown) [ST013322, propyl 2-methyl-4-[2-(methylethoxy)phenyl]-5-oxo-1,4,6,7,8-pentahydroquinoline-3-carboxylate] | 99.7 | 57.6
12 | CCOc1ccc(C2C(C(=O)OC(C)C)=C(C)NC3=C2C(=O)CCC3)cc1OC (stereo not shown) [ST013323, methylethyl 4-(4-ethoxy-3-methoxyphenyl)-2-methyl-5-oxo-1,4,6,7,8-pentahydroquinoline-3-carboxylate] | 80.1 | 56.7
13 | CCCCOC(=O)C1=C(C)NC2=C(C(=O)CCC2)C1c1ccccc1OC (stereo not shown) [ST013324, butyl 4-(2-methoxyphenyl)-2-methyl-5-oxo-1,4,6,7,8-pentahydroquinoline-3-carboxylate] | 93.7 | 54.3
14 | CCCCOC(=O)C1=C(C)NC2=C(C(=O)CCC2)C1c1ccccc1OCCC (stereo not shown) [ST013325, butyl 2-methyl-5-oxo-4-(2-propoxyphenyl)-1,4,6,7,8-pentahydroquinoline-3-carboxylate] | 69.4 | 28.5
15 | COc1ccc(C2C(C(=O)OC3CCCC3)=C(C)NC3=C2C(=O)CC(C)(C)C3)c(OC)c1OC (stereo not shown) [ST013328, cyclopentyl 2,7,7-trimethyl-5-oxo-4-(2,3,4-trimethoxyphenyl)-1,4,6,7,8-pentahydroquinoline-3-carboxylate] | 93.4 | 43.1
16 | CCCCOC(=O)C1=C(C)NC2=C(C(=O)CCC2)C1c1ccccc1OCCCC (stereo not shown) [ST013330, butyl 4-(2-butoxyphenyl)-2-methyl-5-oxo-1,4,6,7,8-pentahydroquinoline-3-carboxylate] | 86.5 | 38

Row | Structure (SMILES) | activity at 5 µM (Aβ1-42) [%] | activity at 5 µM (Aβ1-40) [%]
17 | COC(=O)C1=C(C)NC2=C(C(=O)CC(c3ccc(OC)cc3)C2)C1c1ccc(C)cc1 (stereo not shown) [ST013332, methyl 7-(4-methoxyphenyl)-2-methyl-4-(4-methylphenyl)-5-oxo-1,4,6,7,8-pentahydroquinoline-3-carboxylate] | 68 | 45.1
18 | COC(=O)C1=C(C)NC2=C(C(=O)CC(c3ccc(OC)cc3)C2)C1c1cccc([N+](=O)[O-])c1 (stereo not shown) [ST013333, methyl 7-(4-methoxyphenyl)-2-methyl-4-(3-nitrophenyl)-5-oxo-1,4,6,7,8-pentahydroquinoline-3-carboxylate] | 51.6 | 48.4
19 | COc1ccccc1C1C(C(=O)OC2CCCCC2)=C(C)NC2=C1C(=O)CCC2 (stereo not shown) [ST013339, cyclohexyl 4-(2-methoxyphenyl)-2-methyl-5-oxo-1,4,6,7,8-pentahydroquinoline-3-carboxylate] | 6.87 | 43.6
20 | CCOCCOC(=O)C1=C(C)NC2=C(C(=O)CCC2)C1c1ccc(OC)c(OC)c1 (stereo not shown) [ST013341, 2-ethoxyethyl 4-(3,4-dimethoxyphenyl)-2-methyl-5-oxo-1,4,6,7,8-pentahydroquinoline-3-carboxylate] | 73.9 | 73
21 | CCOCCOC(=O)C1=C(C)NC2=C(C(=O)CCC2)C1c1cccc(O)c1 (stereo not shown) [ST013342, 2-ethoxyethyl 4-(3-hydroxyphenyl)-2-methyl-5-oxo-1,4,6,7,8-pentahydroquinoline-3-carboxylate] | 55.5 | 69.7
22 | CCOCCOC(=O)C1=C(C)NC2=C(C(=O)CC(C)(C)C2)C1c1ccc(O)c(OC)c1 (stereo not shown) [ST013343, 2-ethoxyethyl 4-(4-hydroxy-3-methoxyphenyl)-2,7,7-trimethyl-5-oxo-1,4,6,7,8-pentahydroquinoline-3-carboxylate] | 83 | 61.1
23 | CCOCCOC(=O)C1=C(C)NC2=C(C(=O)CCC2)C1c1ccc(CC)cc1 (stereo not shown) [ST013344, 2-ethoxyethyl 4-(4-ethylphenyl)-2-methyl-5-oxo-1,4,6,7,8-pentahydroquinoline-3-carboxylate] | 86.6 | 54.4
24 | CCOCCOC(=O)C1=C(C)NC2=C(C(=O)CCC2)C1c1cc(OC)c(OC)c(OC)c1 (stereo not shown) [ST013345, 2-ethoxyethyl 2-methyl-5-oxo-4-(3,4,5-trimethoxyphenyl)-1,4,6,7,8-pentahydroquinoline-3-carboxylate] | 75.4 | 58.4
25 | CCCCCOC(=O)C1=C(C)NC2=C(C(=O)CCC2)C1c1ccc(OC)c(OC)c1OC (stereo not shown) [ST013346, pentyl 2-methyl-5-oxo-4-(2,3,4-trimethoxyphenyl)-1,4,6,7,8-pentahydroquinoline-3-carboxylate] | 77.7 | 16.3
26 | CC1=C(C(=O)OC2CCCCC2)C(c2ccc(Cl)c(Cl)c2)C2=C(CC(c3ccccc3)CC2=O)N1 (stereo not shown) [ST013350, cyclohexyl 4-(3,4-dichlorophenyl)-2-methyl-5-oxo-7-phenyl-1,4,6,7,8-pentahydroquinoline-3-carboxylate] | 95.6 | 25.1
27 | CC1=C(C(=O)OC2CCCCC2)C(c2ccc(Cl)cc2)C2=C(CC(c3ccccc3)CC2=O)N1 (stereo not shown) [ST013352, cyclohexyl 4-(4-chlorophenyl)-2-methyl-5-oxo-7-phenyl-1,4,6,7,8-pentahydroquinoline-3-carboxylate] | 84 | 22.4
28 | COCCOC(=O)C1=C(C)NC2=C(C(=O)CC(C)(C)C2)C1c1cc(OC)c(OC)c(OC)c1 (stereo not shown) [ST013356, 2-methoxyethyl 2,7,7-trimethyl-5-oxo-4-(3,4,5-trimethoxyphenyl)-1,4,6,7,8-pentahydroquinoline-3-carboxylate] | 82.5 | 62.7
29 | COCCOC(=O)C1=C(C)NC2=C(C(=O)CCC2)C1c1cc(Br)c(O)c(OC)c1 (stereo not shown) [ST013357, 2-methoxyethyl 4-(3-bromo-4-hydroxy-5-methoxyphenyl)-2-methyl-5-oxo-1,4,6,7,8-pentahydroquinoline-3-carboxylate] | 95.2 | 62.4
30 | COCCOC(=O)C1=C(C)NC2=C(C(=O)CCC2)C1c1ccccc1OC (stereo not shown) [ST013365, 2-methoxyethyl 4-(2-methoxyphenyl)-2-methyl-5-oxo-1,4,6,7,8-pentahydroquinoline-3-carboxylate] | 56 | 84.5
31 | COc1cc(C2C(C(=O)OC3CCCCC3)=C(C)NC3=C2C(=O)CC(c2ccccc2)C3)ccc1O (stereo not shown) [ST013387, cyclohexyl 4-(4-hydroxy-3-methoxyphenyl)-2-methyl-5-oxo-7-phenyl-1,4,6,7,8-pentahydroquinoline-3-carboxylate] | 26.4 | 40
32 | CCc1ccc(C2C(C(=O)OC3CCCCC3)=C(C)NC3=C2C(=O)CC(c2ccccc2)C3)cc1 (stereo not shown) [ST013389, cyclohexyl 4-(4-ethylphenyl)-2-methyl-5-oxo-7-phenyl-1,4,6,7,8-pentahydroquinoline-3-carboxylate] | 94.4 | 37.4
